Data as given in PMC11879280, “Antimicrobial activity of peptoids against Metallo-β-lactamase-producing Klebsiella pneumoniae, Acinetobacter baumannii, Pseudomonas aeruginosa, and other WHO priority pathogens, including Candida auris” (Journal of Applied Microbiology, 2025).
Read-outs that look alike come from different tables or passages of the source. Square brackets hold non-standard residues; d marks the D form. Peptide text beside a SMILES is read from it. N(tridecyl)Gly = CCCCCCCCCCCCCNCC(=O)O; Nspe = C[C@H](NCC(=O)O)c1ccccc1; Nlys = NCCCCNCC(=O)O

Key:
[1] = test system: C. auris CBS12373; assay: Broth microdilution MIC; type: cell-based, Candida auris
[2] = test system: S. aureus 117
Method in brief: (§1)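 Bacteria were suspended at 5 × 10^5 CFU ml^−1 in CAMHB for antibiotics or MHB for peptidomimetics, then incubated at 37°C, 120 rpm for 16–20 h. Suspensions were log10 diluted and plated on Trypticase Soya Agar with phosphatidylcholine and Tween 80 for MBC.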

[3] = test system: En. cloacae 003
Method in brief: as §1

[4] = test system: A. baumannii 006
Method in brief: as §1

[5] = test system: En. cloacae 001
Method in brief: as §1

[6] = test system: Enteroc. faecalis NCTC 13 379
Method in brief: as §1

[7] = test system: P. aeruginosa AR-1270
Method in brief: as §1

[8] = test system: A. baumannii 007
Method in brief: as §1

[9] = test system: En. cloacae 005
Method in brief: as §1

[10] = test system: E. coli 0011
Method in brief: as §1

[11] = test system: A. baumannii 005
Method in brief: as §1

[12] = test system: P. aeruginosa 33
Method in brief: as §1

[13] = test system: E. coli 005
Method in brief: as §1

[14] = test system: S. aureus 04
Method in brief: as §1

[15] = test system: P. aeruginosa 216
Method in brief: as §1

[16] = test system: S. aureus 38
Method in brief: as §1

[17] = test system: S. aureus 105
Method in brief: as §1

[18] = test system: K. pneumoniae JIE2713
Method in brief: as §1

[19] = test system: K. pneumoniae JIE2709
Method in brief: as §1

[20] = test system: E. coli 0015
Method in brief: as §1

[21] = test system: A. baumannii 008
Method in brief: as §1

[22] = test system: A. baumannii ATCC 19 606
Method in brief: as §1

[23] = test system: K. pneumoniae JIE4212
Method in brief: as §1

[24] = test system: E. coli 0010
Method in brief: as §1

**Q.** Which results are given for `CCCCCCCCCCCCCNCC(=O)N(CCCCN)CC(=O)N(CC(=O)N(CC(=O)N(CCCCN)CC(=O)N(CCCCN)CC(N)=O)[C@@H](C)c1ccccc1)[C@@H](C)c1ccccc1` [TM15] (H-[N(tridecyl)Gly][Nlys][Nspe][Nspe][Nlys][Nlys]-NH2)?
**A.** MIC against C. auris ([1]; CBS 12 373, RPMI 1640 with MOPS, 5 × 10^3 CFU ml^−1, ≥90% reduction (≥50% for fluconazole)): 3.9 µg/mL; MIC against C. auris ([1]; CBS12373): 4.0 µM; MIC of peptidomimetics [2]; 117: 8.1 µM; MIC of peptidomimetics ([2]; S. aureus 117, MHB (melimine/Mel4 with 0.2% BSA, 0.01% acetic acid), mean MIC): 7.8 µg/mL; MIC of peptidomimetics [3]: 64.9 µM; MIC of peptidomimetics ([3]; En. cloacae 003, MHB (melimine/Mel4 with 0.2% BSA, 0.01% acetic acid), mean MIC): 62.5 µg/mL; MIC of peptidomimetics [4]; 006: 64.9 µM; MIC of peptidomimetics ([4]; A. baumannii 006, MHB (melimine/Mel4 with 0.2% BSA, 0.01% acetic acid), mean MIC): 62.5 µg/mL; MIC of peptidomimetics [5]: 16.2 µM; MIC of peptidomimetics ([5]; En. cloacae 001, MHB (melimine/Mel4 with 0.2% BSA, 0.01% acetic acid), mean MIC): 15.6 µg/mL; MIC of peptidomimetics ([6]; Enteroc. faecalis NCTC 13 379, MHB (melimine/Mel4 with 0.2% BSA, 0.01% acetic acid), mean MIC): 31.3 µg/mL; MIC of peptidomimetics ([6]; NCTC 13): 32.4 µM; MIC of peptidomimetics ([7]; AR-1270): 32.5 µM; MIC of peptidomimetics ([7]; P. aeruginosa AR-1270, MHB (melimine/Mel4 with 0.2% BSA, 0.01% acetic acid), mean MIC): 31.3 µg/mL; MIC of peptidomimetics [8]; 007: 64.9 µM; MIC of peptidomimetics ([8]; A. baumannii 007, MHB (melimine/Mel4 with 0.2% BSA, 0.01% acetic acid), mean MIC): 62.5 µg/mL; MIC of peptidomimetics [9]: 32.5 µM; MIC of peptidomimetics ([9]; En. cloacae 005, MHB (melimine/Mel4 with 0.2% BSA, 0.01% acetic acid), mean MIC): 31.3 µg/mL; MIC of peptidomimetics [10]; 0011: 64.9 µM; MIC of peptidomimetics ([10]; E. coli 0011, MHB (melimine/Mel4 with 0.2% BSA, 0.01% acetic acid), mean MIC): 62.5 µg/mL; MIC of peptidomimetics [11]; 005: 64.9 µM; MIC of peptidomimetics ([11]; A. baumannii 005, MHB (melimine/Mel4 with 0.2% BSA, 0.01% acetic acid), mean MIC): 62.5 µg/mL; MIC of peptidomimetics [12]; 33: 16.2 µM; MIC of peptidomimetics ([12]; P. aeruginosa 33, MHB (melimine/Mel4 with 0.2% BSA, 0.01% acetic acid), mean MIC): 15.6 µg/mL; MIC of peptidomimetics [13]; 005: 64.9 µM; MIC of peptidomimetics ([13]; E. coli 005, MHB (melimine/Mel4 with 0.2% BSA, 0.01% acetic acid), mean MIC): 62.5 µg/mL; MIC of peptidomimetics [14]; 04: 8.1 µM; MIC of peptidomimetics ([14]; S. aureus 004, MHB (melimine/Mel4 with 0.2% BSA, 0.01% acetic acid), mean MIC): 7.8 µg/mL; MIC of peptidomimetics [15]; 216: 16.2 µM; MIC of peptidomimetics ([15]; P. aeruginosa 216, MHB (melimine/Mel4 with 0.2% BSA, 0.01% acetic acid), mean MIC): 15.6 µg/mL; MIC of peptidomimetics [16]; 38: 8.1 µM; MIC of peptidomimetics ([16]; S. aureus 38, MHB (melimine/Mel4 with 0.2% BSA, 0.01% acetic acid), mean MIC): 7.8 µg/mL; MIC of peptidomimetics [17]; 105: 8.1 µM; MIC of peptidomimetics ([17]; S. aureus 105, MHB (melimine/Mel4 with 0.2% BSA, 0.01% acetic acid), mean MIC): 7.8 µg/mL; MIC of peptidomimetics ([18]; JIE2713): 129.8 µM; MIC of peptidomimetics ([18]; K. pneumoniae JIE2713, MHB (melimine/Mel4 with 0.2% BSA, 0.01% acetic acid), mean MIC): 125 µg/mL; MIC of peptidomimetics ([19]; JIE2709): 129.8 µM; MIC of peptidomimetics ([19]; K. pneumoniae JIE2709, MHB (melimine/Mel4 with 0.2% BSA, 0.01% acetic acid), mean MIC): 125 µg/mL; MIC of peptidomimetics [20]; 0015: 16.2 µM; MIC of peptidomimetics ([20]; E. coli 0015, MHB (melimine/Mel4 with 0.2% BSA, 0.01% acetic acid), mean MIC): 15.6 µg/mL; MIC of peptidomimetics [21]; 008: 32.5 µM; MIC of peptidomimetics ([21]; A. baumannii 008, MHB (melimine/Mel4 with 0.2% BSA, 0.01% acetic acid), mean MIC): 31.3 µg/mL; MIC of peptidomimetics ([22]; A. baumannii ATCC 19 606, MHB (melimine/Mel4 with 0.2% BSA, 0.01% acetic acid), mean MIC): 62.5 µg/mL; MIC of peptidomimetics ([22]; ATCC 19): 64.9 µM; MIC of peptidomimetics ([23]; JIE4212): 64.9 µM; MIC of peptidomimetics ([23]; K. pneumoniae JIE4212, MHB (melimine/Mel4 with 0.2% BSA, 0.01% acetic acid), mean MIC): 62.5 µg/mL; MIC of peptidomimetics [24]; 0010: 64.9 µM; MIC of peptidomimetics ([24]; E. coli 0010, MHB (melimine/Mel4 with 0.2% BSA, 0.01% acetic acid), mean MIC): 62.5 µg/mL
